Experimental data reported in BindingDB's records for doi:10.1111/j.1747-0285.2009.00884.x (Pfizer, 2009).
Values joined by “and” are separate entries in the source; they are usually repeats but may differ in a detail not shown here. Identical values can stand only once.

Tests used:
[1] = target: T1, Mitogen-activated protein kinase 14 (Homo sapiens, UniProt Q16539); experiment: Unactivated p38alpha cascade assay; details: pH 7.5; 25 °C
Method: Binding of inhibitors to unactivated p38a that leads to decreasedphosphorylation of p38alpha by MKK6 was determined by measuringthe activated p38alpha activity in the assay mixture with andwithout inhibitors. In a 20-lL reaction mixture containing 50 mMHepes, pH 7.5, 1 mM EGTA, 10 mM MgCl2, 0.01% (w / v) Brij35 and 200 µM DTT, unactivated p38a (2 nM) was preincubatedwith inhibitors at various concentrations for 30 min at roomtemperature. Ten microliters of 1 mM ATP and 1 nM active MKK6were then introduced to initiate p38a activation. The reaction wasrun at room temperature for 15 min. The mixture was thenimmediately diluted 100-fold so that the inhibitor concentrationwas reduced by 2 orders of magnitude and residual inhibitoryeffect was minimized. The reaction product, active p38alpha, wasthen calculated based on its catalytic activity to activate MK2 asdescribed in Active p38a cascade assay section.

[2] = target: T1, Mitogen-activated protein kinase 14; experiment: Active p38alpha cascade assay; details: pH 7.5; 25 °C
Method: The reaction was run for 15 min atroom temperature. […] Under such

T1 sequence (Q16539 whole entry): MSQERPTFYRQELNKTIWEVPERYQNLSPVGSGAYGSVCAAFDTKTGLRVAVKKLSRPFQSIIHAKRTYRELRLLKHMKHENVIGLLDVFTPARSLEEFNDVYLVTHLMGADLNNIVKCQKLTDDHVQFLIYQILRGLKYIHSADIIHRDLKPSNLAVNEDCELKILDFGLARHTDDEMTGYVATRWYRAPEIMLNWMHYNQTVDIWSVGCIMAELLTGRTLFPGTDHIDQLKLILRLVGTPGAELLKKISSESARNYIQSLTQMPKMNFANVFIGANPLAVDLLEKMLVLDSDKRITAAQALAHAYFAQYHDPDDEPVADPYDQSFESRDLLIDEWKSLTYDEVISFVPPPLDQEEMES

Row | IC50 [1] | IC50 [2] | SMILES
1 | 1030 nM | 2100 nM | O=S1(=O)N=c2ccc3c4c(c5ccccc5c(c24)O1)OS(=O)(=O)N=3 [CP-232880]
2 | 110 nM | 1.8 nM | Clc1ccc(-c2c[nH]c(-c3cc4ccccc4cn3)n2)cc1 [PF-00215924]
3 | – | 1900 nM and > 12500 nM | Brc1ccc(-c2c[nH]c(-c3cc4ccccc4cn3)n2)cc1 [PF-00215937]
4 | 2300 nM | > 12500 nM | Clc1cccc(-c2c[nH]c(-c3cc4ccccc4cn3)n2)c1 [PF-00240292]
5 | 320 nM | 2950 nM | Brc1ccc(-c2c[nH]c(-c3cc4ccccc4cn3)n2)cc1 [PF-04764755]
6 | 6000 nM | > 12500 nM | NCCC(=O)c1cccc(Oc2cccc(C(=O)CCN)c2)c1 [UK-146015]

Second part, the molecule before the results:

Row | SMILES | IC50 [1] | IC50 [2]
7 | CC(=O)c1cc(C(=O)NCc2ccc(-n3nc(C(C)(C)C)cc3NC(=O)Nc3cccc4ccccc34)cc2)ccc1C [(5a) BIRB796] | 8 nM | 933 nM
8 | CC(=O)c1cc(C(=O)NC(O)(NCc2ccc(-n3nc(C(C)(C)C)cc3NC(=O)Nc3cccc4ccccc34)cc2)C2CCCC2)ccc1C (stereo not given) [(5b) BIRB796] | 26 nM | 1110 nM
9 | Cc1ccc(C(=O)NCc2ccc(-n3nc(C(C)(C)C)cc3NC(=O)Nc3cccc4ccccc34)cc2)cc1C(=O)O [(7a) BIRB796] | 11 nM | 691 nM
10 | Cc1ccc(C(=O)NC(O)(NCc2ccc(-n3nc(C(C)(C)C)cc3NC(=O)Nc3cccc4ccccc34)cc2)C2CCCC2)cc1C(=O)O (stereo not given) [(7b) BIRB796] | 36 nM | 1130 nM
11 | Cc1cc(C(=O)NCc2ccc(-n3nc(C(C)(C)C)cc3NC(=O)Nc3cccc4ccccc34)cc2)ccc1C(=O)O [(8a) BIRB796] | 11 nM and 25 nM | 393 nM and 664 nM
12 | Cc1ccc(C(=O)NC(C)(O)NCc2ccc(-n3nc(C(C)(C)C)cc3NC(=O)Nc3ccccc3)cc2)cc1C(=O)O (stereo not given) [(9a) BIRB796] | 6 nM | 376 nM
13 | Cc1ccc(C(=O)NC(O)(NC(=O)NCc2ccc(-n3nc(C(C)(C)C)cc3NC(=O)Nc3ccccc3)cc2)C2CCCC2)cc1C(=O)O (stereo not given) [(9b) BIRB796] | 22 nM | 810 nM
14 | Cc1cc(C(=O)NC(C)(O)NCc2ccc(-n3nc(C(C)(C)C)cc3NC(=O)Nc3ccccc3)cc2)ccc1C(=O)O (stereo not given) [(10a) BIRB796] | 7 nM | 261 nM
15 | Cc1ccc(C(=O)NC(=O)NCc2ccc(-n3nc(C(C)(C)C)cc3NC(=O)Nc3ccccc3)cc2)cc1C(=O)O [(11a) BIRB796] | 11 nM | 1080 nM
16 | Cc1ccc(C(=O)[n+]2cccc(C(=O)NCc3ccc(-n4nc(C(C)(C)C)cc4NC(=O)Nc4ccccc4)cc3)c2)cc1C(=O)O [(11b) BIRB796] | 35 nM | 1220 nM
17 | Cc1cc(C(=O)NC(=O)NCc2ccc(-n3nc(C(C)(C)C)cc3NC(=O)Nc3ccccc3)cc2)ccc1C(=O)O [(12a) BIRB796] | 53 nM | 1590 nM
18 | Cc1cc(C(=O)[n+]2cccc(C(=O)NCc3ccc(-n4nc(C(C)(C)C)cc4NC(=O)Nc4ccccc4)cc3)c2)ccc1C(=O)O [(12b) BIRB796] | 62 nM | 1470 nM
